Entries after “also recorded” stand apart in the source; their conditions may differ.

Series [1] deals with Parkinson's disease patients. The following applies: peripheral subcutaneous administration for 5 years; cited from earlier work.
For series [2] the following is noted: peripheral subcutaneous administration; cited from earlier work.
Series [3] deals with rat cortical cells. In words: Protection of cortical cells from apoptosis (hydrogen peroxide, MTT assay). To be noted: 50 μM hydrogen peroxide, FIG. 11. It counts as cell-based. On the procedure:
To induce apoptosis, rat cortical cells were cultured and treated with 50 μM hydrogen peroxide for three hours prior to being treated with the ganglioside analogue. The cells were also treated with the hydrogen peroxide during treatment with the ganglioside analogue and post-treatment for 48 h. Cell death was assayed using the MTT assay.
A general note: Tetrazolium assays rely on reduction of a dye to a coloured formazan, in cell work by metabolically active cells.

The subject of series [4] is MPTP-treated mice. In words: Rescue of striatal dopamine levels and dopaminergic cells in MPTP-treated mice. In kind it is in vivo, C57B1/6 mice. To be noted: once daily for 3 weeks after MPTP; GM1 30 mg/kg IP; analogs 2, 3, 4, 6, LIGA20 at 0.3 or 30 mg/Kg IP or 30 mg/Kg PO (FIG. 10). How it is done: FIG. 10. GM1 analogs increase dopamine and TH+ cell numbers in the SNpc of MPTP treated mice. All agents administered once daily (I.P. or P.O.) for 3 weeks following MPTP treatment. (a) GM1 (1; 30 mg/Kg; IP), analog (3, 4 and 6; 0.3 mg/Kg; IP). (b) LIGA20 (2; 30 mg/Kg), analogs (2, 3 and 6; 30 mg/Kg; IP). (c) analogs (4 and 6; 30 mg/Kg; PO). (d) TH+IHC of the SNpc after treatment with saline or analog (6) (30 mg/Kg; PO) C=saline control. I and II are two separate experiments. Compound 2 is (XXIX/XXX), compound 3 is (XXVII/XXVIII), compound 4 is (XXXI/XXXII), compound 6 is (XXXVIII/XXXVII). LIGA20 is (XVIII).
C57B1/6 mice 7-8 weeks of age were treated with MPTP (b.i.d., 20 mg/kg, s.c.). The mice also receive a daily administration of saline, GM1 (30 mg/kg), or a compound of the invention (0.3 to 3 mg/kg, i.p. and 30 mg/kg os) for three weeks starting 24 h after the last MPTP injection. The brains were removed and analyzed for striatal dopamine levels. The midbrain were fixed for TH immunohistochemistry and dopamine neuron cell counts.

For series [5], the system named is NG108-15 neuroblastoma cells. In words: Cell death and neurite outgrowth in MPP-treated differentiated neuroblastoma cells. It counts as cell-based. An excerpt:
FIG. 12. GM1 replacement therapy reduces cell death and increases neurite outgrowth. NG108-15 neuroblastoma cells were differentiated for 7 days with db-cAMP/KCl, then treated 2 days with MPP and indicated compound for 2 days. […] LIGA-20 is GM1 analog XVIII and compound 6 is analog XXXVII/XXXVIII.

Series [6] deals with GM1 deficient mice (HT, KO). Kind of series: Motor function in GM1 deficient mice (grip duration, irritant removal, pole climbing). In kind it is in vivo, mouse. To be noted: HT mice 200 DOA. How it is done: FIG. 4. […] Grip duration (a) and irritant removal (b) were tested in mice at 200 DOA before and after IP injection of L-DOPA.
FIG. 5. […] Mice (200 DOA) were treated IP with saline or compound XVIII (2.5 mg/Kg; 3×/wk) over 5 weeks. (a) grip duration; (b) irritant removal; (c) pole climbing.
HT mice (200 DOA) were treated with saline or analog XVIII (2.5 mg/Kg; 3×/wk; IP) over 5 weeks.

Series [7] concerns RET phosphorylation (RET-p). Kind of series: RET phosphorylation in GM1 deficient mice, IHC with anti-RET-P and anti-TH. It counts as in vivo, mouse. An excerpt:
FIG. 8. GM1 replacement restores normal RET phosphorylation (RET-p) from subnormal state in GM1 deficient mice.

Series [8] relates to HT GM1 deficient mice. In words: Cognitive function in GM1 deficient mice, T-maze test. The following applies: 4 wks dosing, 4 mice/group, saline control. It counts as in vivo, mouse. How it is done: FIG. 6. […] T-maze test: 4 wks dosing with GM1 analog XVIII; 4 mice/group; age as indicated. The rate of alternation is a statistical plot as 0.5 (pure chance) to 1.0 (perfect score). Saline was administered as control.
HT and KO mice in two age groups were evaluated for cognitive function with the T maze test (FIG. 6).

Series [9] has as its system GM1 deficient mice (HT, KO). In words: Rescue of striatal dopamine levels and dopaminergic cells in the GM1 deficient mouse (IHC of SNpc). In kind it is in vivo. To be noted: HT mice 200 days old, 2.5 mg/Kg, 3x/wk, ip, 5 weeks, vs saline. On the procedure: FIG. 3. Reversal of PD neuropathology by GM1 replacement. HT mice (200 days old) were treated with saline or compound XVIII (2.5 mg/Kg; 3×/wk, ip) over 5 weeks.
Heterozygote mice (200 days old, DOA) were treated with saline or analog XVIII (2.5 mg/Kg; 3×/wk, IP) over 5 weeks.

The subject of series [10] is NG-CR72 cells lacking GM1. Kind of series: Spontaneous alpha-synuclein aggregation in differentiated cells deficient in GM1. It counts as cell-based. To be noted: 1 μM; cells differentiated with db-cAMP/KCl. An excerpt:
FIG. 9. Spontaneous formation of alpha-synuclein aggregates in cells deficient in GM1.

The mark [11] stands for this setting: 1 μM, differentiated 7 days with db-cAMP/KCl, MPP and compound 2 days.

Take GM1: the “progression of motor function loss” value in series [1] was “slowed the progression of motor function loss”. Besides, the “share of the administered dose able to penetrate the brain” value in [2] is recorded as “less than 1%”. Further, the “protection of cells from apoptosis” value in series [3] was “provided protection of the cells from apoptosis”. Further, the striatal dopamine levels result in series [4] was “increased striatal dopamine levels”. Further, the “% of cells with neurites” value in [5] (GM1 at 100 μM) is given as “similarly improved”. Further, in series [5] (GM1 at 100 μM, compared with LIGA-20 and compound 6 at 1 μM), the relative cell number entry is recorded as “equivalent”.
As for `N[C@@H](Cc1ccc(O)c(O)c1)C(=O)O` [L-DOPA, reference compound], the “motor deficits (grip duration, irritant removal)” value in series [6] (before and after IP injection of L-DOPA) is given as “alleviates motor deficits”.
Regarding `CCCCCCCCCCCCC/C=C/[C@@H](O)[C@H](CO[C@@H]1OC(CO)[C@@H](O[C@@H]2OC(CO)[C@H](O[C@@H]3OC(CO)[C@H](O)[C@H](O[C@@H]4OC(CO)[C@H](O)[C@H](O)C4O)C3NC(C)=O)[C@H](O[C@]3(C(=O)O)C[C@@H](O)[C@@H](NC(C)=O)C([C@H](O)[C@H](O)CO)O3)C2O)[C@H](O)C1O)NC(=O)C(Cl)Cl` (some centres unmarked) [compound XVIII], the “RET phosphorylation (RET-p)” value in series [7] (HT mice (low GM1)) is listed as “significantly elevated”. For the same molecule, in series [7] (KO mice (no GM1)), the “RET phosphorylation (RET-p)” value is “significantly elevated”. Moreover, the “cognitive function, T-maze rate of alternation” value in series [8] is listed as “improves cognitive function”. Also, in series [9], the “TH+ dopaminergic neuron number in SNpc” value is listed as “increase in TH+ dopaminergic cells; also recorded: neuron number increase”, the “striatal dopamine (DA) levels” value was “elevation of striatal dopamine; also recorded: DA levels increase” and the “αSyn aggregates in TH+ cells of SNpc” value is “reduction of αSynuclein; also recorded: αSyn aggregates decrease”. Further, the “motor function (grip duration, irritant removal, pole climbing tests)” value in series [6] (2.5 mg/Kg, 3x/wk, IP, 5 weeks, vs saline, 2.5 mg/kg) was “significantly improved motor function; also recorded: improves motor function”. Moreover, the “αSyn-aggregation (FITC-anti-αSyn antibody staining)” value in series [10] was “suppressed”. Also, in [5] (setting [11]), the “% of cells with neurites” value is “similarly improved” and the relative cell number result was “significantly improved”.
